Measured values: US20240025899A1, “TRIHETEROCYCLIC DERIVATIVE, AND PHARMACEUTICAL COMPOSITION AND APPLICATION THEREOF” (SHANGHAI DE NOVO PHARMATECH CO., LTD., priority 2020, published 2024)
Counter-ions that a name gives are not always drawn. Like-named read-outs stand apart in the source and are kept apart here.

Assays:
CYP3A4 = CYP3A4 (Homo sapiens (Human), UniProt P08684); assay: Cytochrome oxidase P450 inhibition study, CYP3A4; type: in vitro ADME; settings: human liver microsomes
Procedure: (§1) LC-MS/MS methods were used to evaluate the inhibitory effects of compounds on CYP2C19, 2D6 and 3A4 subtypes. In this method, the test compound was mixed with a solution of human liver microsomes containing CYP model substrates, and incubated together under the addition of NADPH, then the inhibitory IC50 of the compound on CYP2C19, 2D6 and 3A4 was calculated by measuring the amount of metabolites of the model substrate in the reaction solution. The specific experimental method is as follows:
(§2) Compounds to be tested were prepared as stock solutions at 10 mM concentration with DMSO and then diluted to 4 mM with acetonitrile solution. At the same time, the corresponding reference inhibitor solutions for CYP subtypes were prepared, for example, the reference inhibitor was Ketoconazole, then these two compounds were prepared separately ([…] of inhibitor DMSO stock solution+[…] of acetonitrile), and the samples prepared under the above conditions were at 400× concentration. Then, the above solution was 3-fold diluted with DMSO/acetonitrile mixture (v/v: 40/60) to prepare the final test solution, and seven concentration points were set for each test compound, and the initial test final concentration was 10 μM. NADPH, CYP enzyme model substrate and human liver microsome solution were diluted to appropriate concentrations with pre-warmed potassium phosphate buffer (0.1 M, pH 7.4), respectively. The human liver microsome solution was purchased from BD Gentest (20 mg/mL, Corning, article number #452161).
[…] of human liver microsome solution (0.2 mg/mL) was added to each well containing the test compound in the 96-well plate, and then 2 mL of the final test sample of test compounds prepared by serial dilution as described above was added thereto; for each well corresponding to the reference inhibitors, […] of human liver microsome solution (0.2 mg/mL) and 1 mL of the final test sample were added. […] of the prepared corresponding model substrate was dispensed into a 96-well plate, and the microsome solution was mixed evenly, then 30 mL of the test compound/reference inhibitor-human liver microsome mixture was taken and transferred to the 96-well plate containing the substrate, and the mixture was mixed well and preheated at 37° C. for 5 minutes, then […] of 8 mM NADPH solution preheated at 37° C. was added thereto to start the reaction. A duplicate well control and a blank control without the addition of test substances were set at the same time. The 96-well plate containing a total volume of […] of reaction solution was incubated at 37° C. After the incubation, 120 μL of cold acetonitrile solution containing internal standard was added to each well to terminate the reaction, and then the 96-well plate was shaked on a microplate shaker for 5 minutes (600 rpm/min), and put into a centrifuge and centrifuged for 20 minutes at 6000 rpm, 4° C. Then 40 μL of supernatant from each well was transferred to another 96-well plate, and 80 μL of ultrapure water was added to each well, put into a shaker and mixed for 5 minutes (600 rpm/min), and centrifuged at 6000 rpm, 4° C., for 20 minutes. Then LC-MS/MS detection was performed. The inhibition rate was determined by comparing the amount of model substrate metabolites at each test concentration without test substance addition, in the GraphPad Prism 5.0 software, the logarithm of the test concentration was used as the abscissa and the inhibition rate was used as the ordinate to perform a linear regression (Sigmoidal (non-linear) dose-response model) analysis to obtain the IC50 value of the test compound.

ATR/ATRIP kinase = ATR/ATRIP kinase (Homo sapiens (Human), UniProt Q13535); assay: ATR enzyme assay (HTRF, phosphorylation of substrate protein P53); type: biochemical; settings: substrate P53, TR-FRET
Procedure: In this experiment, the phosphorylation level of substrate protein P53 (Eurofins, 14-952) was detected by HTRF technology to measure the activity of ATR/ATRIP (Eurofins, 14-953) kinase. Reaction buffer (25 mM HEPES pH 8.0, 0.01% Brij-35, 1% Glycerol, 5 mM DTT, 1 mg/mL BSA), termination buffer (12.5 mM HEPES pH 8.0, 0.005% Brij-35, 0.5% Glycerol, 250 mM EDTA) and assay buffer (50 mM HEPES pH 7.0, 150 mM NaCl, 267 mM KF, 0.1% sodium cholate, 0.01% Tween 20) were prepared in advance. ATR/ATRIP was diluted with reaction buffer to a working solution of 2 ng/μL, and the substrate protein P53 was diluted with reaction buffer to a working solution of 80 nM, and 4 nM of ATP (Sigma, A2383) working solution (containing 40 mM MnCl2) was prepared with reaction buffer. The compound was 3-fold diluted with DMSO, then diluted with reaction buffer into a working solution, then added to a 384-well plate at 2.5 μL/well, and centrifuged at 1500 rpm for 40 s. Then 2.5 μL of ATR/ATRIP working solution, P53 working solution and ATP working solution were added into the 384-well plate, centrifuged at 1500 rpm for 40 s and reacted at room temperature for 30 minutes. After the reaction was completed, 5 μL of termination buffer was added to each well, and centrifuged at 1500 rpm for 40 s. Antibody working solution containing 0.083 μg/mL anti-phospho-p53 (Ser15)-K (CisBio, cat. 61P08KAE) and 5 μg/mL anti-GST-d2 (CisBio, cat. 61GSTDLA) was prepared with assay buffer and added to the 384-well plate at 5 μL/well, then centrifuged at 1500 rpm for 40 s and reacted overnight at room temperature. Microplate reader (Tecan, Infinite M1000 Pro) was used to detect TR-FRET, and the data were analyzed with Graphpad software, and the four-parameter equation was used to fit the curve and calculate the IC50 value of the inhibitor (Table 1).

hERG channel = hERG channel (Homo sapiens (Human), UniProt Q12809); assay: Cardiac safety evaluation, hERG study (QPatch whole-cell recording); type: cell-based; settings: CHO cell line expressing hERG channel
Procedure: In this experiment, a CHO cell line stably transfected with hERG cDNA and expressing p15 hERG channel was used. Cells were incubated at 37° C. in a humidified incubator containing 5% CO2 in medium (Ham's F12, 10% v/v FBS, 100 μg/mL hygromycin B, 100 μg/mL geneticin) (from Invitrogen). Cells were grown under the above conditions and reached approximately 80-90% of the confluency. Cells were treated with Detachin (Genlantis) for 3 to 5 minutes. The medium was titrated 15 to 20 times at 37° C., and then the cells were resuspended in CHO-S-SFM II medium (serum-free medium, Invitrogen) buffered with HEPES (25 mM). Cells used for QPatch studies must meet the following criteria: Most suspension cells should be single and isolated under microscopy; viability should be greater than 95%; cell density in the final suspension should be in the range of 3 to 8×10^6 cells/mL before application to the QPatch stir chamber. Cells meeting the above conditions can be used for recordings within 4 hours of harvest.
Test compounds were made into 10 mM DMSO stock solutions. Six doses (30, 10, 3, 1, 0.3 and 0.1 μM) were selected to obtain the fitted curves and IC50. The final DMSO concentration was 0.1% or less. The IC50 of the positive control cisapride was assessed at doses of 3, 1, 0.3, 0.1, 0.03 and 0.01 μM, respectively. Composition of […] for electrophysiological recordings: CaCl2 2 mM, MgCl2 1 mM, KCl 4 mM, NaCl 145 mM, Glucose 10 mM, HEPES 10 mM, pH 7.4 (NaOH), composition of external solution: CaCl2 […], MgCl2 1.75 mM, KCl 120 mM, HEPES 10 mM, EGTA 5 mM, Na-ATP 4 mM, pH 7.25 (KOH) (all reagents used were from sigma).
Whole-cell recordings were performed using automated QPatch (Sophion Biosciences, Denmark). Cells were recorded for 120 s to assess current stability. The above voltages were then applied to the cells every 15 s throughout the procedure. […]
The data were analyzed with Sophion Assay software (determination software V5.0), Microsoft Excel and Graphpad Prism 5.0 to obtain IC50 of compounds.

CYP2C19 = CYP2C19 (Homo sapiens (Human), UniProt P33261); assay: Cytochrome oxidase P450 inhibition study, CYP2C19; type: in vitro ADME; settings: human liver microsomes; read-out: IC50 2C19
Procedure: as §1
as §2, with “NADPH, CYP enzyme model substrate and human liver microsome solution were diluted to appropriate concentrations with pre-warmed potassium phosphate buffer (0.1 M, pH 7.4), respectively. The human liver microsome solution was purchased from BD Gentest (20 mg/mL, Corning, article number #452161).” left out
(§3) […] of human liver microsome solution (0.2 mg/mL) was added to each well containing the test compound in the 96-well plate, and then 2 mL of the final test sample of test compounds prepared by serial dilution as described above was added thereto; for each well corresponding to the reference inhibitors, […] of human liver microsome solution (0.2 mg/mL) and 1 mL of the final test sample were added. […] The inhibition rate was determined by comparing the amount of model substrate metabolites at each test concentration without test substance addition, in the GraphPad Prism 5.0 software, the logarithm of the test concentration was used as the abscissa and the inhibition rate was used as the ordinate to perform a linear regression (Sigmoidal (non-linear) dose-response model) analysis to obtain the IC50 value of the test compound.

CYP2D6 = CYP2D6 (Homo sapiens (Human), UniProt P10635); assay: Cytochrome oxidase P450 inhibition study, CYP2D6; type: in vitro ADME; settings: human liver microsomes; read-out: IC50 2D6
Procedure: as §1
as §2, with “NADPH, CYP enzyme model substrate and human liver microsome solution were diluted to appropriate concentrations with pre-warmed potassium phosphate buffer (0.1 M, pH 7.4), respectively. The human liver microsome solution was purchased from BD Gentest (20 mg/mL, Corning, article number #452161).” left out
as §3

Sequence of CYP3A4 (P08684 whole entry): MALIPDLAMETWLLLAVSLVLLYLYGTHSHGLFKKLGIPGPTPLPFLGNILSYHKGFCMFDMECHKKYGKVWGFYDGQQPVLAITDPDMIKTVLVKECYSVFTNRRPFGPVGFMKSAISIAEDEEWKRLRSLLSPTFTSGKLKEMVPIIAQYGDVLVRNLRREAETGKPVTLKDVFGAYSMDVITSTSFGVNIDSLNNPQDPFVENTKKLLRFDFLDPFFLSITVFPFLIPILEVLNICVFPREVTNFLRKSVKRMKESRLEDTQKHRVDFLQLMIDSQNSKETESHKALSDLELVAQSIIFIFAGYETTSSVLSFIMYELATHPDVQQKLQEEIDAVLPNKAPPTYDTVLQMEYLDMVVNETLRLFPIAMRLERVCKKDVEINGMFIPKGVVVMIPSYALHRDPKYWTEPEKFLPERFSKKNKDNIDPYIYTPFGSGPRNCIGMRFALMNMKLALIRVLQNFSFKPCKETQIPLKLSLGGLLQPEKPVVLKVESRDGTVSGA
Sequence of ATR/ATRIP kinase (Q13535 whole entry): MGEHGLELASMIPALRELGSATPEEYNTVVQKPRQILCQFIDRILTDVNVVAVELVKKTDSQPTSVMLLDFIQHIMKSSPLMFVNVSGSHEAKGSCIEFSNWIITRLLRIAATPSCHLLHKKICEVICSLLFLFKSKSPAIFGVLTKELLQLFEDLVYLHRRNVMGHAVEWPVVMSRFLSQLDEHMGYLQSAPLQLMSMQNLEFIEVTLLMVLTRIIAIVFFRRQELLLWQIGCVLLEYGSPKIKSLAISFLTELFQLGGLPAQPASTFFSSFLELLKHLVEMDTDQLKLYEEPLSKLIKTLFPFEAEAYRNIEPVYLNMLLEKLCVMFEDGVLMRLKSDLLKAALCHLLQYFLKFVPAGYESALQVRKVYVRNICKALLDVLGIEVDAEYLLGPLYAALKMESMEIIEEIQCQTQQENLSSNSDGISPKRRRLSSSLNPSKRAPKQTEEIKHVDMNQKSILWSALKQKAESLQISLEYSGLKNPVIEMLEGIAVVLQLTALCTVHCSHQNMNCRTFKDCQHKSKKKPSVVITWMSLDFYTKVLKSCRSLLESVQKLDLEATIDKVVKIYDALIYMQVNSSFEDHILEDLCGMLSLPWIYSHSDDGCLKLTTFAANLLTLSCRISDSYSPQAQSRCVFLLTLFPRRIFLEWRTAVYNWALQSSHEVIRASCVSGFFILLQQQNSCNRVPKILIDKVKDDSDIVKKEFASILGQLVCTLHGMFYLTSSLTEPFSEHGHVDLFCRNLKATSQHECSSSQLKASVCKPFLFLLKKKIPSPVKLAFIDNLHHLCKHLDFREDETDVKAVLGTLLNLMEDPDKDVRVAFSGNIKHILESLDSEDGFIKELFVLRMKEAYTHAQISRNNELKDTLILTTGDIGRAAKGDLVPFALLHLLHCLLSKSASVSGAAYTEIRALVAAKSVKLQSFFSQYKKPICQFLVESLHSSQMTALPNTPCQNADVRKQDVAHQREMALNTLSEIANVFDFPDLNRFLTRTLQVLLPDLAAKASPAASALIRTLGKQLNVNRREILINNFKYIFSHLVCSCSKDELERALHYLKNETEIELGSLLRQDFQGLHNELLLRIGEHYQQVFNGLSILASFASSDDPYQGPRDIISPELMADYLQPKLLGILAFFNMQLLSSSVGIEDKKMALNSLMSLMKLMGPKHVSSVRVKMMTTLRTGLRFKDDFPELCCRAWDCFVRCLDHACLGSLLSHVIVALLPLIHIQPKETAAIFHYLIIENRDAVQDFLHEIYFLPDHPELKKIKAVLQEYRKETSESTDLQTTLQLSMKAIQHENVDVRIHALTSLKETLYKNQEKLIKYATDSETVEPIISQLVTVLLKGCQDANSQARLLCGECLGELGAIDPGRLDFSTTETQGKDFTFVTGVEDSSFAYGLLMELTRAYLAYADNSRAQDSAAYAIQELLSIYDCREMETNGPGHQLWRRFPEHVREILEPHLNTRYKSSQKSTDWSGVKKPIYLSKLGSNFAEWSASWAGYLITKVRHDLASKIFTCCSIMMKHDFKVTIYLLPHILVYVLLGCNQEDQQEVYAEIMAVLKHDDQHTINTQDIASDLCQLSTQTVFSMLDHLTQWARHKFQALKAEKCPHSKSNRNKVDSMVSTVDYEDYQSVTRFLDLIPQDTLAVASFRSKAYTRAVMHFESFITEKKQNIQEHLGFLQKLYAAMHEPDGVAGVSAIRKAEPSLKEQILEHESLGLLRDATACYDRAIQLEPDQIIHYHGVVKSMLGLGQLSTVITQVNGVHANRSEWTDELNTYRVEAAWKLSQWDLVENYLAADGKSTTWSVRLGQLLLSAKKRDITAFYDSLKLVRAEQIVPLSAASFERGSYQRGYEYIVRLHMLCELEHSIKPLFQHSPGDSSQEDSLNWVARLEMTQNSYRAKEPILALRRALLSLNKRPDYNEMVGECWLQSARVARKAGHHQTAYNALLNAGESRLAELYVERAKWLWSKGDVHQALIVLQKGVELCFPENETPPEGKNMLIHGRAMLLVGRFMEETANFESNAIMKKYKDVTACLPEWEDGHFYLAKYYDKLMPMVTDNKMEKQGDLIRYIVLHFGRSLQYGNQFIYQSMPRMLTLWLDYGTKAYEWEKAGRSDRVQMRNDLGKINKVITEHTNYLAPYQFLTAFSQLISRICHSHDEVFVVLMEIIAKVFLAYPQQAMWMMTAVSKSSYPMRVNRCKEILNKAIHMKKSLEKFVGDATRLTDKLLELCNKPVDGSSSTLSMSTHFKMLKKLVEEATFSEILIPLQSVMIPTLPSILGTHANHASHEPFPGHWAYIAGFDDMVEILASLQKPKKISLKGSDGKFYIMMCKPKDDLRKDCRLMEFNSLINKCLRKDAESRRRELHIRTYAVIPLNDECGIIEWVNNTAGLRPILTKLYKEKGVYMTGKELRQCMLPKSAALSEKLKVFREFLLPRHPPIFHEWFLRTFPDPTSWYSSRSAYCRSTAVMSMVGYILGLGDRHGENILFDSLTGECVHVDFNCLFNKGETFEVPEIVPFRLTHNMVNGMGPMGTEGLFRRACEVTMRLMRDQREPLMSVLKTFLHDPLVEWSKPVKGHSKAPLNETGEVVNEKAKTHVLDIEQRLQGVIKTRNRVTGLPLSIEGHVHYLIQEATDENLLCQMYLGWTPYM
Sequence of ATR/ATRIP kinase (Q8WXE1 whole entry partner): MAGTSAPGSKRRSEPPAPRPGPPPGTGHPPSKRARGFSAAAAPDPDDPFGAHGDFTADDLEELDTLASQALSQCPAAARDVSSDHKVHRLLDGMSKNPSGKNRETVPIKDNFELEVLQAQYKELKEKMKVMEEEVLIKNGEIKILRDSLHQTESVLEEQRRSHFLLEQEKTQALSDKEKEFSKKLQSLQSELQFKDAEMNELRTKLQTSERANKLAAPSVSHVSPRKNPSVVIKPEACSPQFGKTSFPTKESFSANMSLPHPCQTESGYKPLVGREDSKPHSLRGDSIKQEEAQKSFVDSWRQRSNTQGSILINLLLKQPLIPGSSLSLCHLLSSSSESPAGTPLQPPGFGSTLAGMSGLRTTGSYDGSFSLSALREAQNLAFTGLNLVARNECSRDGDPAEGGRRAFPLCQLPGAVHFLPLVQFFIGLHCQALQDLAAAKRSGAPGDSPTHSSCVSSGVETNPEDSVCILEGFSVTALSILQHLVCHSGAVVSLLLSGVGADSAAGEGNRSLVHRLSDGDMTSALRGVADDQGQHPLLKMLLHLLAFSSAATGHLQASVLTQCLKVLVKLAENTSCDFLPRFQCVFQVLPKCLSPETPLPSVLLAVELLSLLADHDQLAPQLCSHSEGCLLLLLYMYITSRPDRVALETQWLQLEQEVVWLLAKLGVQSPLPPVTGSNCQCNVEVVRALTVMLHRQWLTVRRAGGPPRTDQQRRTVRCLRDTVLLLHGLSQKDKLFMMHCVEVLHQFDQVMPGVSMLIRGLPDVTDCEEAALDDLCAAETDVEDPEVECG
Sequence of CYP2D6 (P10635 whole entry): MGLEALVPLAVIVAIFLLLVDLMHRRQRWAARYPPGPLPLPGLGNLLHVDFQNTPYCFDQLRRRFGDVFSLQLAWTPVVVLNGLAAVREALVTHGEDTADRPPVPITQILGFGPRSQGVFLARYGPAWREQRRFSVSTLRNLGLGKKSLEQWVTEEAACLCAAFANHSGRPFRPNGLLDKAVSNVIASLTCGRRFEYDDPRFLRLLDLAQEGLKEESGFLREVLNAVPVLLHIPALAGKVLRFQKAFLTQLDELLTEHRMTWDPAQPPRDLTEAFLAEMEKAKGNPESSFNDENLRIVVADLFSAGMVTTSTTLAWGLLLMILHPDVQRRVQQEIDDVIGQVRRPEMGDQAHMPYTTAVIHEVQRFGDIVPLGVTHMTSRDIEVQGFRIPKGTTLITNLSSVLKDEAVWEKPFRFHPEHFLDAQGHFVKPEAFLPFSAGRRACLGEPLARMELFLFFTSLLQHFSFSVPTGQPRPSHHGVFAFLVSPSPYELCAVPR
Sequence of CYP2C19 (P33261 whole entry): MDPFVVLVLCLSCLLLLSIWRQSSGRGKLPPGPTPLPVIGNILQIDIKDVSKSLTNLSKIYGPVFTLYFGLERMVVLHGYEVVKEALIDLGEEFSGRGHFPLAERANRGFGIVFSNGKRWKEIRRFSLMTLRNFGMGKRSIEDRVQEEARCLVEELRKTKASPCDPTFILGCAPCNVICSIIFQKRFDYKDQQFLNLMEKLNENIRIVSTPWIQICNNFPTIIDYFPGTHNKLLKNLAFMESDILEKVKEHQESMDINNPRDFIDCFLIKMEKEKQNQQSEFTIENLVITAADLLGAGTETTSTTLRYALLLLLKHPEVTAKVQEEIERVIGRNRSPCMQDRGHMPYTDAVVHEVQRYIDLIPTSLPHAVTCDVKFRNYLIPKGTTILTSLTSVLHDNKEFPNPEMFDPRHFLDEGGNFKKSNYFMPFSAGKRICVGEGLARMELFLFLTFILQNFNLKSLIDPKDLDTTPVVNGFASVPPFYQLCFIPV

IC50 (CYP3A4; substrate Midazolam, read-out: IC50 3A4 (Midazolam)): > 10 µM
IC50 (CYP3A4; substrate Testosterone, read-out: IC50 3A4 (Testosterone)): > 10 µM
IC50 (ATR/ATRIP kinase): 0.00051 µM
IC50 (CYP2C19): > 10 µM
IC50 (CYP2D6): > 10 µM
Compound: C[C@@H]1COCCN1c1nc2c(cnn2-c2cc[nH]n2)c2c1ccn2S(=O)(=O)N(C)C [Compound 3, (R)—N,N-dimethyl-4-(3-methylmorpholino)-6-(1H-pyrazol-3-yl)pyrazolo[3,4-b]pyrrolo[2,3-d]pyridine-1(6H)-sulfonamide trifluoroacetate]
IC50 (hERG channel): > 30 µM
